Publication PMC5642494 (Oncotarget, 2017)

Experiments:
pRb (Ser780) = assay: High content imaging of Rb phosphorylation (Ser780), EFM-19; assay type: cell-based; conditions: Homo sapiens, 16 hours, mean ± Stdev n = 2
Description: (§1) Relative IC50/EC50 values were determined by curve fitting to a four parameter logistic equation: Y = bottom + ((top-bottom)/ (1+exp(HillSlope*(X – LnIC50)), where X is the natural log of dose/concentration, Y is response, decreasing as X increases, top and bottom are plateaus in the same units as Y, lnIC50 is the natural log of potency, in the same log units as X, and HillSlope measures the steepness of the curve. Data were plotted using GraphPad Prism.
As controls, cells were treated with 10 µM palbociclib or vehicle ( 0.2 % v/v DMSO). Additional details for cell-based assays are provided in the Supplemental Methods. […]
www.impactjournals.com/oncotarget/ Oncotarget Supplementary Materials
Preclinical characterization of abemaciclib in hormone receptor […]
METHODS High content imaging cell-based assays for monitoring phosphorylation of Rb (ser780), G1 arrest and
Enzyme kinetics of CDK6/cyclin D3 complexes Cells were fixed with para-formaldehyde and Rb phosphorylation at Serine 780 was detected using CDK6/cyclin D3 activity was measured by the a primary mouse anti-Rb (PS780) antibody followed phosphorylation of CTRF using [g-33P] […] Plates were read in an kinase buffer containing 68 mM Hepes at pH 7.5, 6.67 mM Acumen Explorer eX3 (TTP Labtech). […]
(EDTA) was used to determine the level of background evaluated by measuring PI signal using high content 33P in the absence of enzyme activity. […]

EFM-19 cells = assay: Ki-67 protein expression, EFM-19; assay type: cell-based; conditions: Homo sapiens, 2 DT, read-out: EC50 Ki-67 levels
Description: as §1
After 72 hours, cells were stained with an anti-FOXM1 antibody and a secondary goat anti-rabbit IgG, Alexa Fluor® 488 conjugate; nuclei were stained with propidium iodide (PI). Alternatively, for assessment of Ki-67 levels, cells were treated for 2 DT and then stained with Ki-67 and a secondary goat anti-rabbit IgG, Alexa Fluor® 488 conjugate. Plates were read in an Acumen Explorer Ex3 (TTP Labtech) using Cellista software and the percentages of FOXM1 positive and Ki-67 positive cells were calculated over the background signal. Data were normalized in Excel using the mean value obtained from treatment with 2 µM BEZ235 as the minimum and the mean value obtained from treatment with 0.2% DMSO as the maximum.

pCTD_s2 or MCL1 = assay: Immunoblotting of CDK9-dependent biomarkers in ZR-75-1, T-47D and MCF7 cells; assay type: cell-based, human; conditions: MCF7, T-47D, ZR-75-1 cells; 24 hours; highest concentration (20 µM)
Description: Protein lysates were prepared from the cells and analyzed for the expression of various biomarkers by immunoblotting. The biomarkers included phosphor-Rb at serines 807/811,phosphorylation of serine 2 on the C-terminal repeat domain on RNA polymerase II (pCTD) and MCL1. Images of Western blots were cropped to denote the relevant band(s) for clarity. […] Ki-67 positive events were obtained by gating versus background signal.

MCF7 cells = assay: BrdU incorporation ELISA in MCF7; assay type: cell-based; conditions: Homo sapiens, 3 DT
Description: as §1
After treatment, an ELISA for BrdU detection was performed (Roche, Cat. No. 11 669 915 001) following the vendor’s manual. Envision® (PerKinElmer) was used to measure the light emission of the samples and raw data were processed with Microsoft Excel and relative EC50 values were determined as described above. For normalization, the mean value obtained from cells treated with 2 µM […] doxorubicin (Sigma #D1515) was set as the minimum, and that obtained from treatment with the vehicle (0.2% DMSO) was set as the maximum.

## CCN1CCN(Cc2ccc(Nc3ncc(F)c(-c4cc(F)c5nc(C)n(C(C)C)c5c4)n3)nc2)CC1 [abemaciclib, Abemaciclib]
pRb (Ser780)
  IC50: 12 ± 11 nM
EFM-19 cells
  EC50: 16.7 nM
pCTD_s2 or MCL1
  levels of pCTD_s2 or MCL1: no changes were observed
MCF7 cells
  EC50: 178 nM
